Laboratory results as given in the supplement of paper PMC10307832.

Tests used:
Experiment in all cases: relative viability (nuclei count vs DMSO), 5 days (fraction); higher = more cells survive
Wnt-C59 + OSI-027 = compound: CC1=NC=CC(=C1)C2=CC=C(C=C2)CC(=O)NC3=CC=C(C=C3)C4=CN=CC=C4 [Wnt-C59] + COc1cccc2cc(-c3nc([C@H]4CC[C@H](C(=O)O)CC4)n4ncnc(N)c34)[nH]c12 [OSI-027] (partner 0.5 µM)
Method in brief: (§1)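 Lung cancer cell lines in 1536-well plates were dosed by pin tool the day after seeding, either with one drug alone or with a fixed anchor-drug dose plus five library-drug doses (not always all listed) in √10 steps. After 5 days, cells were fixed and their nuclei stained in one step (final 0.05% Triton X-100, 1% formaldehyde, 1 ug/ml Hoechst), then counted on 4× images. Relative viability is the nuclei count in treated wells divided by that in vehicle wells. Values are medians of duplicate plates.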

Lapatinib + Pictilisib = compound: CS(=O)(=O)CCNCc1ccc(-c2ccc3ncnc(Nc4ccc(OCc5cccc(F)c5)c(Cl)c4)c3c2)o1 [Lapatinib] + CS(=O)(=O)N1CCN(Cc2cc3nc(-c4cccc5[nH]ncc45)nc(N4CCOCC4)c3s2)CC1 [Pictilisib] (partner 1 µM)
Method in brief: as §1

Lapatinib + Crizotinib = compound: CS(=O)(=O)CCNCc1ccc(-c2ccc3ncnc(Nc4ccc(OCc5cccc(F)c5)c(Cl)c4)c3c2)o1 [Lapatinib] + C[C@@H](Oc1cc(-c2cnn(C3CCNCC3)c2)cnc1N)c1c(Cl)ccc(F)c1Cl [Crizotinib] (partner 1 µM)
Method in brief: as §1

Lapatinib + Vorinostat = compound: CS(=O)(=O)CCNCc1ccc(-c2ccc3ncnc(Nc4ccc(OCc5cccc(F)c5)c(Cl)c4)c3c2)o1 [Lapatinib] + O=C(CCCCCCC(=O)Nc1ccccc1)NO [Vorinostat] (partner 1 µM)
Method in brief: as §1

Cell Line	relative viability (Wnt-C59 + OSI-027; first compound 0.001 µM)	relative viability (Wnt-C59 + OSI-027; first compound 0.01 µM)	relative viability (Wnt-C59 + OSI-027; first compound 0.03162 µM)	relative viability (Wnt-C59 + OSI-027; first compound 0.1 µM)	relative viability (Lapatinib + Pictilisib; first compound 0.02 µM)	relative viability (Lapatinib + Pictilisib; first compound 0.06325 µM)	relative viability (Lapatinib + Pictilisib; first compound 0.2 µM)	relative viability (Lapatinib + Pictilisib; first compound 0.6325 µM)	relative viability (Lapatinib + Pictilisib; first compound 2 µM)	relative viability (Lapatinib + Crizotinib; first compound 0.06325 µM)	relative viability (Lapatinib + Crizotinib; first compound 0.2 µM)	relative viability (Lapatinib + Crizotinib; first compound 0.6325 µM)	relative viability (Lapatinib + Crizotinib; first compound 2 µM)	relative viability (Lapatinib + Vorinostat; first compound 0.06325 µM)	relative viability (Lapatinib + Vorinostat; first compound 0.2 µM)	relative viability (Lapatinib + Vorinostat; first compound 0.6325 µM)	relative viability (Lapatinib + Vorinostat; first compound 2 µM)	relative viability (Lapatinib + Crizotinib; first compound 0.02 µM)	relative viability (Lapatinib + Vorinostat; first compound 0.02 µM)
HCC-366	0.774	0.542	1.02	1.04	0.133	0.0868	0.131	0.135	0.0768	0.418	0.713	0.564	0.372	0.275	0.391	0.352	0.202		
HCC-827	0.877	0.724	0.9	0.761	0.947	1.13	0.891	1.02	0.574	0.944	0.923	0.88	0.513	0.868	0.706	0.802	0.869	0.915	0.76
HOP-62	0.743	0.813	0.788	0.852		0.66	0.76	0.816	0.672	0.892	0.991	0.934	0.948	0.631	0.639	0.678	0.655		
IA-LM					0.227	0.297	0.223	0.21	0.222	0.98	0.713	0.881	0.644	0.795		0.916	0.885	0.823	
LC-2-ad	1.18	0.822	0.937	0.729		0.425	0.543	0.431	0.322	0.487	0.473	0.436	0.375	0.632	0.763	0.623	0.672		
LCLC-97TM1	0.581	0.512	0.667	0.502			0.223	0.227	0.203		0.593	0.472	0.357	0.316	0.953	0.681	0.687		
LCLC-103H	0.458	0.533	0.527	0.498		0.555	0.695	0.636	0.494	0.93	0.934	0.963	0.931	0.65	0.768	0.779	0.692		0.582
LK-2	0.211	0.265	0.199	0.229			0.424	0.615	0.531		0.253	0.217	0.245		0.222	0.325	0.357		0.173
LOU-NH91	0.76	0.571	0.718	0.738	0.395	0.451	0.425	0.513	0.447	0.626	0.599	0.547	0.534	0.675	0.856	0.824	0.769	0.697	0.398
LU99A	0.307	0.281	0.342	0.274	0.337	0.26	0.345	0.346	0.372	0.464	0.53	0.582	0.597	0.358	0.506	0.426	0.469	0.591	0.49
LXF-289	0.779	0.807	0.828	0.809	0.762	0.717	0.744	0.784	0.737	0.85	0.805	0.779	0.743	0.709	0.83	0.664	0.673	0.819	0.474
NCI-H23	0.634	0.499	0.781	0.578			0.506	0.482	0.483		0.504	0.396	0.412		0.624	0.746	0.555		
NCI-H322M	0.53	0.498	0.442	0.399	0.555	0.31	0.483	0.504	0.404	0.649	0.912	0.857	0.735	0.749	0.786	0.92	0.683	0.823	0.947
NCI-H522	0.683	0.654	0.742	0.784										0.822	1	0.839	0.902		
NCI-H1299					0.871	0.768	0.859	0.801	0.803	1.03	0.893	0.944	0.916					0.952	
NCI-H1395	0.61	0.661	0.717	0.727		0.66	0.527	0.696	0.583					0.704	0.779	0.789	0.646		
NCI-H1563	0.711	0.784	0.761	0.728	0.592	0.643	0.6	0.725	0.693	0.874	0.861	0.789	0.774					0.881	
NCI-H1623	0.429	0.383	0.416	0.453															
NCI-H1648	0.292	0.285	0.292	0.246										0.271	0.389	0.587	0.287		
NCI-H1703					0.231	0.213	0.228	0.32	0.275	0.873	0.774	0.879	0.63					0.696	
NCI-H1792	0.722	0.686	0.926	0.703	0.292	0.236	0.294	0.302	0.123	0.987	0.985	0.946	0.918					0.92	
NCI-H1793	0.189		0.287	0.266				0.368	0.318					0.495	0.646	0.646	0.42		
NCI-H2342	0.57	0.527	0.646	0.613										0.596	0.625	0.707	0.693		0.562
SW 900	0.585	0.54	0.457	0.554										0.516	0.476	0.468	0.408		
